Where two headings read alike, the source gives them in different places.
Columns and labels:
[1] = biological target: T1, HDAC4 (Homo sapiens, UniProt P56524); experiment: Enzyme HDAC inhibition assay, HDAC4; assay type: biochemical; settings: IC50 ± SEM; three experiments in duplicates; read-out: IC50 HDAC 4
T1 construct: purchased Reaction Biology Corp. KDA-21-279
Description: (§4) All human recombinant enzymes were purchased from Reaction Biology Corp. (Malvern, PA, USA).

[2] = tested on: HDAC2; settings: obtained by fitting Lechner et al. source data to a sigmoidal concentration–effect model; ref [21]; read-out: IC50 HDAC 2, Lechner et al.; cited from earlier work
[3] = tested on: HDAC6; settings: ref [21], cited from earlier work
[4] = tested on: HDAC8; settings: ref [21], cited from earlier work; for IC50: obtained by fitting Lechner et al. source data to a sigmoidal concentration–effect model, read-out: IC50 HDAC 8, Lechner et al.
[5] = biological target: HDAC2 (Homo sapiens, UniProt Q92769); experiment: Enzyme HDAC inhibition assay, HDAC2
HDAC2 (Homo sapiens, UniProt Q92769), sequence (Q92769 whole entry): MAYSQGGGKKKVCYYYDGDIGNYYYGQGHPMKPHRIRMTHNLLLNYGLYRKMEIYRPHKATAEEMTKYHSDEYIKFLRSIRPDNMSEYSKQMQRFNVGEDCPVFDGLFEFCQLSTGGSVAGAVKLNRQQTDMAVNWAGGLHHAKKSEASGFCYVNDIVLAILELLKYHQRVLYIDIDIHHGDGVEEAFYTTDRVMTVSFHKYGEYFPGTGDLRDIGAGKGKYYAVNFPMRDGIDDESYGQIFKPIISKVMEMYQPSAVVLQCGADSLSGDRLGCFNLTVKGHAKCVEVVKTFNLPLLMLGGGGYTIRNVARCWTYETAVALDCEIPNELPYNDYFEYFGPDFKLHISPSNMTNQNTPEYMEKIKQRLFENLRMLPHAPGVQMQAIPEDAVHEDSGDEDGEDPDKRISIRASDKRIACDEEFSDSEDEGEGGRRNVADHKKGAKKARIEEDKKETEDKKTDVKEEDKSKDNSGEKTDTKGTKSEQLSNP
Description: as §4

[6] = biological target: T2, HDAC6 (Homo sapiens, UniProt Q9UBN7); experiment: Enzyme HDAC inhibition assay, HDAC6
T2 sequence (Q9UBN7 1-1215): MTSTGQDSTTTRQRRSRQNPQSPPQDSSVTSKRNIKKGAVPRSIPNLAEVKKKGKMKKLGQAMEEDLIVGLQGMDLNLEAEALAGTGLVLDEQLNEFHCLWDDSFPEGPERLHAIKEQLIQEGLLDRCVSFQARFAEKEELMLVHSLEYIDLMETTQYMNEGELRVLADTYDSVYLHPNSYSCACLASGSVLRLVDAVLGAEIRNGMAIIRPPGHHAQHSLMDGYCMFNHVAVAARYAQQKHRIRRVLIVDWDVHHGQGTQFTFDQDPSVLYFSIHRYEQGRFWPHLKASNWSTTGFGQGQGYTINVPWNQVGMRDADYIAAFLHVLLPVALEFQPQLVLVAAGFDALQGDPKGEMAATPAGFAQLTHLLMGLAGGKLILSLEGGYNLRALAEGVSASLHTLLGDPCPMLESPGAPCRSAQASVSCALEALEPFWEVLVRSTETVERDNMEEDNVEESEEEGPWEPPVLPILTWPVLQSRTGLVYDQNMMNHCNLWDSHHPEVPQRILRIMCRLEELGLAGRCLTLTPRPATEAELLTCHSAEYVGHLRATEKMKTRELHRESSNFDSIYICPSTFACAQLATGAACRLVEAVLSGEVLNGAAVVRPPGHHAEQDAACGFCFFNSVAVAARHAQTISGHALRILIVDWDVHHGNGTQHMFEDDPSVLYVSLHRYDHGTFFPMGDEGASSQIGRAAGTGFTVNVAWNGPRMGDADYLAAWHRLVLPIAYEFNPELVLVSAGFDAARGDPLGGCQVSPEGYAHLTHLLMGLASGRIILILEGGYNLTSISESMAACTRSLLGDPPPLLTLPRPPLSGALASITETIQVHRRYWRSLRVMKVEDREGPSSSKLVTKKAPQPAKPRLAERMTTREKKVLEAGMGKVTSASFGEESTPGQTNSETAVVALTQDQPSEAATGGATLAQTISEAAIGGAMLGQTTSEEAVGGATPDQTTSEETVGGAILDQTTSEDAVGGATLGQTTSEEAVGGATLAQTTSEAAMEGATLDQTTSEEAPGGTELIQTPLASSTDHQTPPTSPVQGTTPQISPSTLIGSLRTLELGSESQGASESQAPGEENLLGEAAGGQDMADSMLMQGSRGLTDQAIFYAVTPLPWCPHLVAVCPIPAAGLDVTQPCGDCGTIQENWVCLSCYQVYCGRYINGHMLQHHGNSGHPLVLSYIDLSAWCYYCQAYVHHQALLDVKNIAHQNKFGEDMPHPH
Description: as §4

[7] = biological target: T3, HDAC8 (Homo sapiens, UniProt Q9BY41); experiment: Enzyme HDAC inhibition assay, HDAC8
T3 sequence (Q9BY41 1-377): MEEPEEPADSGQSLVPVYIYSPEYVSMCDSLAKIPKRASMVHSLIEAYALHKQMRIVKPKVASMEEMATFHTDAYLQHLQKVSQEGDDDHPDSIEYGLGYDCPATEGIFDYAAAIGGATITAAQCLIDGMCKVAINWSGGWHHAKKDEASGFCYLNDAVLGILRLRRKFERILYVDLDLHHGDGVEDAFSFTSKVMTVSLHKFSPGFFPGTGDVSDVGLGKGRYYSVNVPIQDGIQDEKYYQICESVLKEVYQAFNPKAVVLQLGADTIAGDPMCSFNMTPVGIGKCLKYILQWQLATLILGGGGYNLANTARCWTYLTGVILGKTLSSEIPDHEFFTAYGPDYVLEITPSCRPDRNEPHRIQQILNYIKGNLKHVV
Description: as §4

[8] = tested on: caspase 3/7 in MCF-7 cells; experiment: Caspase 3/7 activation assay, MCF-7; assay type: cell-based, human; settings: 0.5 mM or 1 mM, 24 h
Description: (§1) To analyze the compound-induced activation of capases 3 and 7, the CellEvent caspase 3/7 green detection reagent (Thermo Scientific, Wesel, Germany) was used according to the manufacturer’s instructions. […] After 24 h incubation, medium was removed, and cells were stained with 50 µL of CellEvent caspase 3/7 green detection reagent (2 µM in PBS supplemented with 5% heat-inactivated FBS). Cells were incubated for 30 min at 37 °C in a humidified incubator before imaging by using the Thermo Fisher ArrayScan XTI high content screening (HCS) system with a 10× magnification (Thermo Scientific). Hoechst 33342 was added for nuclei staining.

[9] = tested on: caspase 3/7 in T47D cells; experiment: Caspase 3/7 activation assay, T47D; assay type: cell-based, human; settings: 0.5 mM or 1 mM, 24 h
Description: as §1

[10] = tested on: MCF-7; experiment: Immunoblotting, MCF-7; assay type: cell-based, human; settings: 48 h
Description: (§2) A quantity of 20 or 40 µg of total protein as well as, from PageRuler Prestained Protein Ladder, 10–180 kDA (Thermo Scientific, Wesel, Germany), were resolved by SDS-Page (12% polyacrylamide gel) and transferred to polyvinylidene fluoride membrane (Millipore Corporation, Billerica, MA, USA). Blots were incubated with primary antibodies against acetylated a -tubulin (Cat. No. sc-23950), a -tubulin (Cat. No. sc-8035) (Santa Cruz Biotechnology, Heidelberg, Germany), acetyl histone h3 (Cat. No. 39140) and histone H3 (Cat. No. NB100-1669), ß-actine (Cat. No. sc-47778), p21 (AF1047), c-myk (Cat. No. MAB3696), APAF1 (Cat. No. MAB868), BIM (Cat. No. NBP1-76936), FOXO1 (Cat. No. C29H4), BCL-2 (Cat. No. AF810), and survivin (Cat. No. AF886). After another one-hour incubation with the appropriate HRP-conjugated secondary antibody, proteins were visualized by Intas Imager (Intas, Göttingen, Germany) using luminol reagent (Santa Cruz Biotechnology, Heidelberg, Germany).

[11] = tested on: T47D; experiment: Immunoblotting, T47D; assay type: cell-based, human; settings: 48 h
Description: as §2

[12] = tested on: class I/IIb HDAC activity in T47D cells; experiment: cells; assay type: cell-based, human; settings: 48 h, read-out: IC50 Cellular HDAC Assay
Description: The cellular HDAC assay was performed based on an assay published by Heltweg and Jung and Ciossek et al.. Breast cancer cell line T-47D (12,000 c/w) was seeded in 96-well tissue culture plates (Corning, Kaiserslautern, Germany) in a total volume of 90 µL of culture medium. After 24 h, cells were incubated 48 h with increasing concentrations of a-lipoic acid. The reaction was started by adding 10 µL of 3 mM Boc-Lys(Ac)-AMC (Bachem, Bubensdorf, Switzerland) and again incubated for 3 h under cell culture conditions. […]

[13] = tested on: MCF-7; experiment: MTT cell viability assay, MCF-7; assay type: cell-based, human; settings: 120 h; IC50 ± SEM; read-out: IC50 MCF-7, 120 h MTT assay
Description: (§3) MTT assays were performed as previously described. […] After incubation time, medium was replaced by MTT (solution of 5 mg/mL 3-(4,5-dimethylthiazol-2-yl)-2,5-diphenyl-tetrazoliumbromidin in phosphate buffered saline, Serva, Heidelberg, Germany).

[14] = tested on: T47D; experiment: MTT cell viability assay, T47D; assay type: cell-based, human; settings: 120 h; IC50 ± SEM; read-out: IC50 T-47D, 120 h MTT assay
Description: as §3

[15] = tested on: MDA-MB-231; experiment: MTT cell viability assay, MDA-MB-231; assay type: cell-based, human; settings: 120 h; IC50 ± SEM; read-out: IC50 MDA-MB-231, 120 h MTT assay
Description: MTT assays were performed as previously described. Cell numbers plated differed depending on each incubation time: MDA-MB-231 5000 c/w, MCF-7 5000 c/w (72 h) and 3000 c/w (120 h), T-47D 10,000 c/w (72 h) and 5000 c/w /120 h). After incubation time, medium was replaced by MTT (solution of 5 mg/mL 3-(4,5-dimethylthiazol-2-yl)-2,5-diphenyl-tetrazoliumbromidin in phosphate buffered saline, Serva, Heidelberg, Germany). After 10 min (MCF-7), 20 min (MDA-MB-231), and 30 min (T47D) and dissolving in DMSO (VWR, Langenfeld, Germany), absorbance was measured at 544 nm and 690 nm in a FLUOstar microplate reader (BMG LabTech, Offenburg, Germany).

[16] = obtained by fitting Lechner et al. source data to a sigmoidal concentration–effect model, read-out: IC50 HDAC 6, Lechner et al.

T1 sequence (P56524 whole entry): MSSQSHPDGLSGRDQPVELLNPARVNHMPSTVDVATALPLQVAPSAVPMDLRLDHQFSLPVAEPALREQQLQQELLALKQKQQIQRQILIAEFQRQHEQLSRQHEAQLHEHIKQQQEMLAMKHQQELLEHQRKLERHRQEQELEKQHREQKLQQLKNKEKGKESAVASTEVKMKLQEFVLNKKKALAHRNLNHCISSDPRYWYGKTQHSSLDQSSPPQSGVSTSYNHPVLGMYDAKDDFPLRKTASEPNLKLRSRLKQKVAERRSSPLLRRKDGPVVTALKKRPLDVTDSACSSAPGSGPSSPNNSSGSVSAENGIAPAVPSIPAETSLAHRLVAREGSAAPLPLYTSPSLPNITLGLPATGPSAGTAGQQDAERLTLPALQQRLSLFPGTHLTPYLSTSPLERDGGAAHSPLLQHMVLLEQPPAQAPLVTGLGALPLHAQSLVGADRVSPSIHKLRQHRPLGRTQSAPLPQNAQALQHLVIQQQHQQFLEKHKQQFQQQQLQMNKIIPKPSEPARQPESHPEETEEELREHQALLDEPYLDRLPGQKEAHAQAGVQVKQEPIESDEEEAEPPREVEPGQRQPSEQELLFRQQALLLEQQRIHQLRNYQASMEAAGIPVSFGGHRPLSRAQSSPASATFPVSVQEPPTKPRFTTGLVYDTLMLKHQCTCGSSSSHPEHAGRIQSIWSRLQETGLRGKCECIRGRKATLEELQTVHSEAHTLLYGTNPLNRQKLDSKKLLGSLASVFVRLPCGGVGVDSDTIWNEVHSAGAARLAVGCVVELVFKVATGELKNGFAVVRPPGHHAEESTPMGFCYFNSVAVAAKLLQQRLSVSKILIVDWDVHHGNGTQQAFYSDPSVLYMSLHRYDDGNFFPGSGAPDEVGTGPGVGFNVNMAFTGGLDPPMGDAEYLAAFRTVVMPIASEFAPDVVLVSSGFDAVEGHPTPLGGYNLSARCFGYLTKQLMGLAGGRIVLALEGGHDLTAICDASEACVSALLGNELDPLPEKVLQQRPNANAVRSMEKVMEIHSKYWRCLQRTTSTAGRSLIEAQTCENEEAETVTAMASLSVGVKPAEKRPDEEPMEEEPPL

In the case of O=C(O)CCCCC(S)CCS (racemic), the IC50 [1] is listed as 177 ± 17.5 µM, the IC50 [2] is listed as 27.9 µM and the IC50 [3, 16] is listed as 1.7 µM. The “more active than rac-α-lipoic acid at HDAC6, Lechner et al.'s study” value [3] was “around 100 fold”, the IC50 ([3]; read-out: IC50 at HDAC6 as reported by Lechner et al.) was roughly 1 µM and the IC50 [4] was 22.3 µM. For the same compound, the “more active than rac-α-lipoic acid at HDAC8, Lechner et al.'s study” value [4] was “at least 5 fold”, the IC50 [5] was 98.1 ± 35.6 µM and the IC50 [6] was 6.48 ± 2.11 µM. For the same compound, the “HDAC6 preference (selectivity for HDAC6)” value ([6]; versus HDAC2, 4 and 8, from Table 1) was 8 fold and the IC50 [7] was 51.5 ± 10.5 µM.
In the case of O=C(O)CCCCC1CCSS1 (stereo not drawn) [α-lipoic acid], the “caspase activation, MCF-7” value [8] is reported as 5–15%, the “caspase activation, T47D” value [9] is reported as 5–15% and the “expression of BCL-2, MCF-7” value [10] is reported as “loss or massive reduction in expression”. The “expression of BCL-2, T47D” value [11] was “loss or massive reduction in expression”.
With O=C(CCCCCCC(=O)Nc1ccccc1)NO [vorinostat] the IC50 ([12]; Homo sapiens, T47D) was 0.79 ± 0.07 µM.
Compound O=C(O)CCCCC1CCSS1 (racemic) [rac-α-lipoic acid] has an IC50 [1] of 262 ± 37.8 µM, an IC50 ([12]; T47D cells, substrate Boc-Lys-AC-AMC, IC50 ± SEM, one experiment in triplicates) of 1190 ± 67 µM and an IC50 [13] of 454 ± 15.2 µM. For the same compound, the IC50 [14] was 373 ± 13.9 µM, the IC50 [15] was 275 ± 22.5 µM and the IC50 [2] was 391 µM. The IC50 [3, 16] was 191 µM, the IC50 [4] was 109 µM and the IC50 ([5]; read-out: IC50 HDAC 2, IC50 ± SEM, three experiments in duplicates) was 208 ± 4.2 µM. The IC50 ([6]; read-out: IC50 HDAC 6, IC50 ± SEM, three experiments in duplicates) was 15.3 ± 4.6 µM and the IC50 ([7]; read-out: IC50 HDAC 8, IC50 ± SEM, three experiments in duplicates) was 464 ± 83 µM.

Reference: article PMC11313180 (International Journal of Molecular Sciences, 2024)
